Tests used:
Assay type in all cases: cell-based, human
[1] = test system: Kelly cells; assay: Cellular proliferation assay (ATP-Lite), Kelly cells; details: for Cell Prolif (%) 1 μM 72 h: PNA 1 μM; for Cell Prolif. (%) 5 μM 72 h: PNA 5 μM; for Cell Prolif. (%) 10 μM 72 h: PNA 10 μM; for Cell Prolif (%) 2,5 μM 72 h: PNA 2,5 μM; for Cell Prolif. (%): Table 1, treated vs untreated control cells; for Kelly % cell prol.: Table 6
In short: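 Kelly cells seeded at 5×10^3/well in OPTI-MEM with 4% FBS and 2 mM L-glutamine, in triplicate. PNA oligonucleotides at 1, 2.5, 5 or 10 μM. Viability by ATP-Lite luminescence at 48, 72, 96 and 168 h, as ratio to untreated controls.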

[2] = test system: MYCN gene; assay: QT-PCR, MYCN mRNA in SKNBE2c cells; details: Table 6
Method: For the purpose of assessing the ability of the oligonucleotides of the present invention to modulate the expression of the target genes, their ability to reduce the quantity of messenger RNA was analyzed using the Real-Time PCR technique. For this purpose, use was made of 24-well plates, which were seeded with 5.0×10^4 cells with 0.3 ml of OPTI-MEM (GIBCO BRL) medium, 4% FBS and 2 mM L-glutammine (experiments in triplicate) per well. The cells were incubated for 24 hours at 37° C., in an atmosphere containing 5% CO2 to permit adherence to the base of the wells. For each well, the oligonucleotides were analyzed at the following final concentrations: • the antisense oligonucleotides siRNA and siRNA gapmer (i.e. the oligonucleotides containing one or more monomers of chemically modified nucleic acids at the 3' or 5' end, while in the central portion they have monomers of nucleic acids that have not been modified or have been modified at the level of the phosphodiester bond as a phosphorothioate bond) were used at 200 nM; • the antisense oligonucleotides containing phosphorothioate DNA monomers, the RNA antigene oligonucleotides (agRNA) and the oligonucleotides containing DNA monomers and LNA monomers were used at 10 μM; • the morpholino oligonucleotides were used at a concentration of 1 μM, and • the PNA oligonucleotides were administered at a concentration of 1 μM. The cells were treated with the oligonucleotides, adding FBS up to 4% 6 hours after administration of the same. After 24 hours the total RNA was extracted from each well and purified using the RNeasy Mini Kit (QIAGEN). Assays were performed on 8 cell lines obtained from 5 different human tumours which are correlated with MYCN expression, i.e.: • as a neuroblastoma model use was made of the cell lines Kelly, IMR-32 (where the MYCN gene is amplified and superexpressed) and SKNBE2c and LAN1 (where the MYCN gene is amplified and superexpressed and the p53 gene is mutated); • as a rabdomiosarcoma model use was made of the cell line RH30, where the MYCN gene is amplified and superexpressed; • as a Wilms' tumour model use was made of the cell line WiT49, where the MYCN gene is amplified and superexpressed; • as a retinoblastoma model use was made of the cell line Y79, where the MYCN gene is amplified and superexpressed; and • as a model of small cell lung cancer use was made of the cell line H69 where the MYCN gene is amplified and superexpressed. As a control, use was made of the same cell lines as listed above treated with sterile water instead of oligonucleotides. Each RNA sample was quantified (in duplicate) using a NanoDrop ND-1000 spectrophotometer (NanoDrop Technologies). The first strand of cDNA was produced using the cDNA Synthesis Kit for RT-PCR (Roche). For the cDNA synthesis reaction a total of 1 μg of RNA was used. For the real-time PCR, 10 ng of cDNA in a final volume of 20 μl was used with SYBR Green Master Mix 2× (Applied Biosystems) (3 identical experiments were conducted in triplicate). Two housekeeping genes were used as positive controls: GAPDH and beta-actin (ACTB). The conditions of the QT-PCR reaction were: 10 min at 95° C., 20 sec at 95° C., and 30 sec at 60° C., for 50 cycles. The PNAs having SEQ ID NO: 1-12 were also tested on different cell lines which overexpress MYCN (Kelly, SKNBE2c, RH30, […] 1 and H69). The results are shown in Table 6 and confirm the selectivity and specificity of the inhibition effect of the PNAs on the product of protein translation of the MYCN gene.

[3] = test system: rabdomyosarcoma cells (RH30); assay: Cellular proliferation assay (ATP-Lite), RH30 cells; details: Table 6, PNA
Method: For the purpose of assessing the gene modulation ability of the oligonucleotides of the present invention, the effect of their administration on cell viability was determined. For this purpose 5×10^3 cells per well were seeded into 96-well cell culture plates (experiments conducted in triplicate) with 100 μl of OPTI-MEM (GIBCO BRL) medium containing 4% FBS and 2 mM of L-glutammine. The PNA oligonucleotides were administered at different concentrations (1 μM-2.5 μM-5 μM-10 μM) in order to observe a dose-effect relationship. As regards all the other oligonucleotides, the concentrations at which they administered are listed in the paragraph: The viability of the treated cells was determined at 48, 72, 96 and 168 hours after treatment. Cell viability was assessed by means of an ATP-Lite assay (Luminescence ATP Detection Assay System, PerkinElmer) and is reported as the ratio between the average signal of the treated wells compared to the average value of the wells of untreated control cells. The cells were processed following the instructions provided with the kit. The assays were performed on the same cell lines used to determine the levels of the MYCN gene messenger and listed in the paragraph: Treatments with Oligonucleotides-QT-PCR. The PNAs having SEQ ID NO: 1-12 were also tested on different cell lines which overexpress MYCN (Kelly, SKNBE2c, RH30, […] 1 and H69). The results are shown in Table 6 and confirm the selectivity and specificity of the inhibition effect of the PNAs on the product of protein translation of the MYCN gene. Chimeric oligonucleotides comprising DNA monomers and LNA monomers and having the MYCN gene as their target were tested in vitro on alveolar rabdomyosarcoma cells (RH30). […] The antisense oligonucleotides designed and synthesized by the Applicant according to the parameters described in the present invention were analyzed in vitro on rabdomyosarcoma cells (RH30).

| Substance | Cell Prolif (%) 1 μM 72 h [1] [%] | Cell Prolif. (%) 5 μM 72 h [1] [%] | Cell Prolif. (%) 10 μM 72 h [1] [%] | Cell Prolif (%) 2,5 μM 72 h [1] [%] | Cell Prolif. (%) [1] [%] | Kelly % cell prol. [1] [%] | SKNBE2c % mRNA [2] [%] | RH30 % cell prol. [3] [%] |
| --- | --- | --- | --- | --- | --- | --- | --- | --- |
| SEQ ID NO: 1: PNA ATGCCGGGCATGATCT against MYCN; subject of patent EP 1618195, control sequence used for comparison (all peptide nucleic acid (PNA)) [reference compound] | 89 | 50 | 24 | 66 | 70 | 66 | 41 | 76 |
| SEQ ID NO: 10: PNA antigene oligonucleotide CGGCCGCGGGCCGCCA directed against MYCN (PNA backbone, chemistry not fully specified) | – | – | – | – | 65 | 64 | 41 | 80 |
| SEQ ID NO: 12: PNA antigene oligonucleotide TGTCTGGACGCGCTGG directed against MYCN (all peptide nucleic acid (PNA)) | 84 | 40 | 16 | 60 | 69 | 65 | 40 | 77 |
| SEQ ID NO: 6: PNA antigene oligonucleotide TGGACGCGCTGGGTGG directed against MYCN (PNA backbone, chemistry not fully specified) | 82 | 35 | 13 | 59 | 54 | 54 | 62 | 64 |
| SEQ ID NO: 8: PNA antigene oligonucleotide GTCTGGACGCGCTGGG directed against MYCN (all peptide nucleic acid (PNA)) | 80 | 32 | 11 | 57 | 59 | 59 | 62 | 60 |
| SEQ ID NO: 2: PNA antigene oligonucleotide GGGTGGATGCGGGGGG directed against MYCN (PNA backbone, chemistry not fully specified) | 74 | 12 | 2 | 32 | 32 | 32 | 75 | 56 |
| SEQ ID NO: 7: PNA antigene oligonucleotide CGCGCTGGGTGGATGC directed against MYCN (all peptide nucleic acid (PNA)) | 80 | 31 | 8 | 54 | 57 | 57 | 60 | 63 |
| SEQ ID NO: 3: PNA antigene oligonucleotide GATGCGGGGGGCTCCT directed against MYCN (PNA backbone, chemistry not fully specified) | 78 | 19 | 3 | 41 | 41 | 41 | 68 | 59 |
| SEQ ID NO: 11: PNA antigene oligonucleotide GGGAACTGTGTTGGAG directed against MYCN (PNA backbone, chemistry not fully specified) | – | – | – | – | 68 | 64 | 40 | 78 |
| SEQ ID NO: 4: PNA antigene oligonucleotide GTCGGCGGGAGGTAAG directed against MYCN (PNA backbone, chemistry not fully specified) | 78 | 21 | 3 | 48 | 48 | 48 | 60 | 62 |
| SEQ ID NO: 9: PNA antigene oligonucleotide CCCTGCAGTCGGCGGG directed against MYCN (all peptide nucleic acid (PNA)) | 86 | 42 | 20 | 64 | 64 | 60 | 58 | 71 |

— patent publication US10752900B2, “Oligonucleotides for modulating gene expression and uses thereof” (BIOGENERA S.P.A., priority 2012, dated 2020)
